Test results taken from ChEMBL document CHEMBL2040748, “N-4-t-Butylbenzyl 2-(4-methylsulfonylaminophenyl) propanamide TRPV1 antagonists: Structure-activity relationships in the A-region” (Bioorg Med Chem, 2012).

Legend:
[1] = molecular target: T1, Transient receptor potential cation channel subfamily V member 1 (Homo sapiens, UniProt Q8NER1); test: Displacement of [3H]RTX from human TRPV1 receptor expressed in CHO cells after 60 mins by scintillation counting; format: cell-based
[2] = molecular target: T2, Transient receptor potential cation channel subfamily V member 1 (Rattus norvegicus, UniProt O35433); test: Antagonist activity at rat TRPV1 receptor expressed in CHO cells assessed as decrease in capsaicin-induced intracellular 45Ca2+ uptake after 1 hr by […] analysis; format: functional, cell-based
[3] = molecular target: T2, Transient receptor potential cation channel subfamily V member 1; test: Displacement of [3H]RTX from rat TRPV1 receptor expressed in CHO cells after 60 mins by scintillation counting; format: cell-based
[4] = molecular target: T1, Transient receptor potential cation channel subfamily V member 1; test: Antagonist activity at human TRPV1 receptor expressed in CHO cells assessed as decrease in capsaicin-induced intracellular 45Ca2+ uptake after 1 hr by […] analysis; format: functional, cell-based
[5] = molecular target: T1, Transient receptor potential cation channel subfamily V member 1; test: Antagonist activity at human TRPV1 receptor expressed in CHO cells assessed as decrease in pH-induced intracellular 45Ca2+ uptake after 1 hr by […] analysis; format: functional, cell-based
[6] = molecular target: Transient receptor potential cation channel subfamily V member 1 (Rattus norvegicus) (UniProt O35433); test: Antagonist activity at rat TRPV1 receptor expressed in CHO cells assessed as decrease in capsaicin-induced intracellular 45Ca2+ uptake after 1 hr by […] analysis relative to untreated control; format: functional, cell-based
Transient receptor potential cation channel subfamily V member 1 (Rattus norvegicus), sequence (O35433 whole entry): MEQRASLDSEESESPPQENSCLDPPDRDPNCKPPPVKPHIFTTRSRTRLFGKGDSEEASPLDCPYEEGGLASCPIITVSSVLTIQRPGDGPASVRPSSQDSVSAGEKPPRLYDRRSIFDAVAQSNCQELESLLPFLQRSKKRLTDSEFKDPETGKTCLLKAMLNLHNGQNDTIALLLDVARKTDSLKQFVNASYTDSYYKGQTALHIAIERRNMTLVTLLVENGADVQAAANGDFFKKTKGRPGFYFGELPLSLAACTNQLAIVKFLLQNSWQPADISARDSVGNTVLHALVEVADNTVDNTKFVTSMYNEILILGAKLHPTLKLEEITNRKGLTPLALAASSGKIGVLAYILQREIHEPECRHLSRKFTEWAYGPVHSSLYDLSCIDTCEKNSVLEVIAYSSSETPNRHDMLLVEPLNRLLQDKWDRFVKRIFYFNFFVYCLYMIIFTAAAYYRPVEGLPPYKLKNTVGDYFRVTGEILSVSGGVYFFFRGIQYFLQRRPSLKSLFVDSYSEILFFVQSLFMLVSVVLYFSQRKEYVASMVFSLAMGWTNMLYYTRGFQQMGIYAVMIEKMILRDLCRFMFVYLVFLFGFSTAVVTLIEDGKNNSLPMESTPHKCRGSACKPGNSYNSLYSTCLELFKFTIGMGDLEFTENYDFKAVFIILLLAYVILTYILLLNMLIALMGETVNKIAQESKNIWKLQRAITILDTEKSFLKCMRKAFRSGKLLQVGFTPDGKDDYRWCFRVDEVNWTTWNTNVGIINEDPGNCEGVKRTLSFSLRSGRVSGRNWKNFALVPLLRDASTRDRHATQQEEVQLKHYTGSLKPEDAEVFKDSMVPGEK

T1 sequence (Q8NER1 whole entry): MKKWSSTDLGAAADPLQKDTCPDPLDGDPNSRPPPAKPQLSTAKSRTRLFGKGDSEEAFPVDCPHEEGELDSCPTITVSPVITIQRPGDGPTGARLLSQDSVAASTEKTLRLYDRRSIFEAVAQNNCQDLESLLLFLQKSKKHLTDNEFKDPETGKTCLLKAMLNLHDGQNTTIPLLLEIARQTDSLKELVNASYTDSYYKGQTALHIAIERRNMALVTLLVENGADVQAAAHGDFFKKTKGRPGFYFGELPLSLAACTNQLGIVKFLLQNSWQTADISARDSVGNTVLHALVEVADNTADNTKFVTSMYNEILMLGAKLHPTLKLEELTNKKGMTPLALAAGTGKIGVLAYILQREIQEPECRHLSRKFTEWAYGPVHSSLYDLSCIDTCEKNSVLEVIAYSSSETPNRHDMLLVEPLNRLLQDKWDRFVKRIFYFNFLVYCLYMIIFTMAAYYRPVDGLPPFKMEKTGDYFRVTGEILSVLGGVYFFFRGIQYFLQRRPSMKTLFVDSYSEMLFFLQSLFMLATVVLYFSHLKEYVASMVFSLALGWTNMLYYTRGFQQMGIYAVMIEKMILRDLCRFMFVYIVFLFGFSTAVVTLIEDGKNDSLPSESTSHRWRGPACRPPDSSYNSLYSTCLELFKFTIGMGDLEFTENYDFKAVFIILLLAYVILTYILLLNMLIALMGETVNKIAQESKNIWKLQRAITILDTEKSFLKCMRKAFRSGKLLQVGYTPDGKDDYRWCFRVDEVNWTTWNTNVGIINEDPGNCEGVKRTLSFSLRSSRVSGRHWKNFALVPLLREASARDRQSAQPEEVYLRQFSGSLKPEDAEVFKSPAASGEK
T2 sequence (O35433 whole entry): as the sequence (O35433 whole entry) above

Row | Compound | Ki [1] [nM] | Ki [2] [nM] | Ki ([3]; read-out: Ki) [nM] | Ki [4] [nM] | Ki [5] [nM] | Efficacy [6] [%] | further results
1 | CC(C(=O)NCc1ccc(C(C)(C)C)cc1)c1ccc(NS(C)(=O)=O)c(F)c1 (racemic) | 89 | 7.6 | 46.2 | 5.1 | 12.7 | – | –
2 | CC(C(=O)NCc1ccc(C(C)(C)C)cc1)c1ccc(NS(C)(=O)=O)c(N2CCN(C(=O)OC(C)(C)C)CC2)c1 (centres undefined) | – | – | 7000 | – | – | 13 | –
3 | Cc1cc(C(C)C(=O)NCc2ccc(C(C)(C)C)cc2)ccc1NS(C)(=O)=O (centres undefined) | – | 18.9 | 32.8 | – | – | – | –
4 | C[C@@H](C(=O)NCc1ccc(C(C)(C)C)cc1)c1ccc(NS(C)(=O)=O)c(F)c1 | 2590 | 186 | 750 | 217 | 440 | – | –
5 | CC(C(=O)NCc1ccc(C(C)(C)C)cc1)c1ccc(NS(C)(=O)=O)c(N2CCCCC2)c1 (centres undefined) | – | – | – | – | – | – | Ki ([3]; cho): Active
6 | COc1cc(CNC(=S)NCc2ccc(C(C)(C)C)cc2)ccc1NS(C)(=O)=O | – | – | – | – | – | 84 | –
7 | CC(C(=O)NCc1ccc(C(C)(C)C)cc1)c1ccc(NS(C)(=O)=O)c(N2CCOCC2)c1 (centres undefined) | – | – | – | – | – | – | Ki ([3]; cho): Active

More lines, main results first:

Row | Ki [1] [nM] | Ki [2] [nM] | Ki ([3]; read-out: Ki) [nM] | Ki [4] [nM] | Ki [5] [nM] | Efficacy [6] [%] | Compound | further results
8 | – | – | – | – | – | 23 | CC(C(=O)NCc1ccc(C(C)(C)C)cc1)c1ccc(NS(C)(=O)=O)c(C(=O)NCc2ccccc2)c1 (centres undefined) | –
9 | 15.8 | 4.16 | 24.4 | 0.49 | 8.3 | – | C[C@H](C(=O)NCc1ccc(C(C)(C)C)cc1)c1ccc(NS(C)(=O)=O)c(F)c1 | –
10 | – | – | – | – | – | 16 | CC(C(=O)NCc1ccc(C(C)(C)C)cc1)c1ccc(NS(C)(=O)=O)c(C(=O)OC(C)(C)C)c1 (centres undefined) | –
